# Data as given in patent US12054475B2, “Substituted heterocycles as aldehyde dehydrogenase inhibitors” (KayoThera Inc., priority 2021, dated 2024).
# Several values for one entry are separate records, joined by “and”; a condition that tells them apart may be missing. Equal values may be shown once.
# Assays:
# [1] = tested on: K-Ras, p53 −/− undifferentiated pleiomorphic sarcoma cell line allografts; assay: K-Ras, p53 -/- undifferentiated pleiomorphic sarcoma allograft study; type: in vivo, C57BL6 syngeneic mice; conditions: single agent, 20 days; Compound 140 40 mg/kg intraperitoneal, MBE1.5 25 mg/kg daily equivalent in diet
# Method: In another allograft study, K-Ras, p53 −/− undifferentiated pleiomorphic sarcoma cell line allografts were implanted subcutaneously into C57BL6 syngeneic mice. […] Tumor volume were measured on day 14, 17, and 24 post inoculation for each group, and tumor mass were measured at the end of the study.
# [2] = tested on: T3-MCA fibrosarcoma cell line allografts; assay: Combination with anti-PD-1 in T3-MCA fibrosarcoma allografts; type: in vivo, C57BL6 syngeneic mice; conditions: for tumor growth as a single agent: 40 mg/kg daily equivalent, oral medicated diet, Day 9 to Day 25
# Method: T3-MCA fibrosarcoma cell line allografts were implanted subcutaneously into C57BL6 syngeneic mice. […] Medicated diet was initiated at Day 9 after mice were randomized and continued until termination at Day 25. Anti-PD-1 antibody was administered by intraperitoneal injection at Day 11, 14, 18 and 21 by a 200 uL injection of a 1 mg/mL solution in saline. Tumor volume were measured on day 14, 18, 22, and 25 post inoculation for each group.
# [3] = target: T1, hALDH1a2 (Homo sapiens (Human), UniProt O94788); assay: Cell based assay: STRA6 mRNA by q-rtPCR in MCF7 cells expressing ALDH1a2; conditions: 20 hours incubation, read-out: IC50 (ALDH1a2), STRA6 mRNA levels
# T1 sequence (O94788 whole entry): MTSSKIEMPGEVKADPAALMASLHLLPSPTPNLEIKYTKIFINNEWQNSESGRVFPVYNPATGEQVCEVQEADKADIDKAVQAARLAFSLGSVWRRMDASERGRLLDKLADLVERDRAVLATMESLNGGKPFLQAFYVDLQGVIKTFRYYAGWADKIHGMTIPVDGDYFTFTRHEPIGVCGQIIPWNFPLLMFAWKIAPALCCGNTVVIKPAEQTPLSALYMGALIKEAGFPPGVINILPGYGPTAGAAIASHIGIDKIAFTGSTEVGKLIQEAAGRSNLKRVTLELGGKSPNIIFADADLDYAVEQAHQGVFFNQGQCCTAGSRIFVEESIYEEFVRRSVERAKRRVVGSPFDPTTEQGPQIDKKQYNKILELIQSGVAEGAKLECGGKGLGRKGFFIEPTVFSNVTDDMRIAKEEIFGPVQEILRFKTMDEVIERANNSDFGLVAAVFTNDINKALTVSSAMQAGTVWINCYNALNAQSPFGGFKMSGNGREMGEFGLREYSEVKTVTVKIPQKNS
# Method: (§1) MCF7 cells were stably transduced with lentiviral vectors encoding human ALDH1a1, ALDH1a2 or ALDH1a3 or Vector control and selected by puromycin to establish stable cultures that were verified for overexpression by western blotting and Aldefluor activity. Cells were plated into 6 cm plates in regular DMEM media supplement with […]. At the beginning of the assay, cells were washed with PBS for 5 minutes followed by addition of compound solvated into DMEM media with 10% FBS or corresponding DMSO controls, maintaining DMSO at a constant concentration of 0.1% across all samples. Following 20 hours of incubation at 37 C, cells were lysed and RNA was extracted using a Qiagen RNAeasy kit. cDNA was synthesized using the Superscript IV kit and retinoid activation was measured using STRA6 mRNA levels as a proxy as measured by q-rtPCR.
# [4] = target: mALDH1a2 (Mus musculus (Mouse), UniProt Q62148); assay: Aldh1a2 enzyme inhibition assay (recombinant enzyme, resorufin fluorescence); type: biochemical
# Sequence of mALDH1a2 (Q62148 whole entry): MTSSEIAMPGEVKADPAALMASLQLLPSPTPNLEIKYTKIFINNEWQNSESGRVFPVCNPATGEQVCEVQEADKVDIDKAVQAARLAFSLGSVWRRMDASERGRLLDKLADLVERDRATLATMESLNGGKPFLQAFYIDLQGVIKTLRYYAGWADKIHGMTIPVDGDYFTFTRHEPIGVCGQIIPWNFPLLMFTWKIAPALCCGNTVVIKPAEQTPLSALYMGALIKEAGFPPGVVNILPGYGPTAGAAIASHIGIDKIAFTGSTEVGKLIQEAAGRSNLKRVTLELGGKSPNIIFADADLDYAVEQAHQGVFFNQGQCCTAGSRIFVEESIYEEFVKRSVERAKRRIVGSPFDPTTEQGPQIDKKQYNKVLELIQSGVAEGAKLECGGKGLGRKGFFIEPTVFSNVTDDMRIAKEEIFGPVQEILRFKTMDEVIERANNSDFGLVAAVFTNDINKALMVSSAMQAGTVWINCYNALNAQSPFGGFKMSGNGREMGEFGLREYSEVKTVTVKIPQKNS
# Description: Recombinant enzyme and inhibitor added immediately before assay. Reaction rate measured by resorufin fluorescence.
# [5] = target: hALDH1a3 (Homo sapiens (Human), UniProt P47895); assay: Cell based assay: STRA6 mRNA by q-rtPCR in MCF7 cells expressing ALDH1a3; conditions: 20 hours incubation, read-out: IC50 (Aldh1a3), STRA6 mRNA levels
# Sequence of hALDH1a3 (P47895 whole entry): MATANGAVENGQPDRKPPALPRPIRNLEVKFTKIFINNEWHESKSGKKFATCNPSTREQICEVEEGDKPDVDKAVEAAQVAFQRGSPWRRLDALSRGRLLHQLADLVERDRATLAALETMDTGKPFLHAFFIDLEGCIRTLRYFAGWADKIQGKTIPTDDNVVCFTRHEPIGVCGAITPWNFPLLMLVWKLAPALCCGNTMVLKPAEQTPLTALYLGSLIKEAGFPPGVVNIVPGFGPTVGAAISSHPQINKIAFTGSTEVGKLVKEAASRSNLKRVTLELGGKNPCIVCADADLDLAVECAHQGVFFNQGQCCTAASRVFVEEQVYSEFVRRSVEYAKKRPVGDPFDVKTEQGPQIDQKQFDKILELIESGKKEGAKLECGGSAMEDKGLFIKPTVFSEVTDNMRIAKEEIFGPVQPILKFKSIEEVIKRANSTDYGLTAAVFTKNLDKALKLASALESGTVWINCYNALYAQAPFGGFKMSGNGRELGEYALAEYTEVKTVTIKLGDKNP
# Method: as §1
# [6] = tested on: T3-MCA fibrosarcoma cell line allografts; assay: T3-MCA fibrosarcoma allograft study; type: in vivo, C57BL6 syngeneic mice
# Method: In one allograft study, T3-MCA fibrosarcoma cell line allografts were implanted subcutaneously into C57BL6 syngeneic mice. […] Tumor volume were measured on day 8, 14, and 17 post inoculation for each group, and tumor mass were measured at the end of the study.
# In another allograft study, T3-MCA fibrosarcoma cell line allografts were implanted subcutaneously into C57BL6 syngeneic mice.
# [7] = target: T1, hALDH1a2; assay: Aldh1a2 enzyme inhibition assay (recombinant enzyme, resorufin fluorescence); type: biochemical
# [8] = tested on: primary tumors and metastasis; assay: Mouse xenograft models, ALDH1a3 inhibitor in conjunction with paclitaxel; type: in vivo; conditions: with chemotherapy agent paclitaxel
# [9] = Pharmacokinetic profiling in mice
# [10] = oral, 40 mg/kg once daily for twelve days
IC50 [4],IC50 [7],Structure (SMILES),"tumor growth (caliper measurement, tumor mass at endpoint) [1]","tumor growth, combined treatment with anti-PD-1 antibody ([2]; 40 mg/kg daily equivalent oral medicated diet plus anti-PD-1 200 microgram i.p. Day 11, 14, 18, 21)",tumor growth as a single agent [2],tumor growth as a single agent ([2]; listed as compound 140),IC50 [3],IC50 [5],"tolerability [6, 10]","tumor growth [6, 10]","tumor growth (caliper measurement, tumor mass at endpoint) ([6]; single agent, once daily for 9 days, Compound 140 40 mg/kg intraperitoneal, MBE1.5 25 mg/kg daily equivalent in diet)",efficacy in conjunction with paclitaxel [8],"cage side observations, adverse reactions ([9]; 0 hours to 24 hours post-dosing, mice)","plasma half-life, IV bolus dosing ([9]; male CD-1/C57BL/6 mice, 1 mg/kg intravenous)","plasma half-life, PO oral gavage dosing ([9]; male CD-1/C57BL/6 mice, 10 mg/kg oral gavage)","oral bioavailability ([9]; male CD-1/C57BL/6 mice, 10 mg/kg oral gavage, 1 mg/kg intravenous)","time plasma concentrations exceed 5-fold the IC50 ([9]; oral gavage (PO) and intravenous (IV) administration, n=3 mice per group)"
96 nM,99 nM,"CCc1cnccc1C(=O)Nc1cc(C)c2c(c1)CCC(=O)N2 [Compound 140, 3-ethyl-N-(8-methyl-2-oxo-3,4-dihydro-1H-quinolin-6-yl)pyridine-4-carboxamide]",successful inhibition of tumor growth as a single agent,synergy with anti-PD-1 antibody in causing tumor regression,successful inhibition of tumor growth as a single agent,inhibits tumor growth as a single agent,27.6 nM and < 50 nM,6.97 nM and < 50 nM,excellent tolerability,successful inhibition of tumor growth,successful inhibition of tumor growth as a single agent,,,,,,
,,CCc1cnccc1C(=O)Nc1cc2c(cc1F)NC(=O)CC2 [MBE1],,,,,1670 nM,3.67 nM,,,,effective in treating established metastatic diseases,no adverse reactions,1.79 h,1.37 h,88%,> 10 h
